The target of data set [1] is T1, Neuronal acetylcholine receptor subunit alpha-7 (Rattus norvegicus, UniProt Q05941). Nature of the data set: Agonist activity at rat alpha7 nAChR expressed in HEK293 cells co-expressing human RIC3 assessed as area under current curve at holding potential of -90 mV by whole-cell voltage clamp electrophysiology method. The format is cell-based.
Data set [2] is described as follows: Half life in dog at 1 mg/kg, iv administered as 5 mins infusion. Type of data set: ADME, organism-based, Canis lupus familiaris. The settings on record: in vivo.
The nature of data set [3]: Cmax in mouse at 10 mg/kg, po. The format is ADME, organism-based. The settings on record: in vivo. Also on record: dose 10 mg/kg, route oral.
For data set [4], the target named is T1, Neuronal acetylcholine receptor subunit alpha-7. Nature of the data set: Agonist activity at rat alpha7 nAChR expressed in HEK293 cells assessed as increase in Ca2+ flux by Fluo-4 AM dye based FLIPR assay. Type of data set: cell-based.
Data set [5] can be described thus: Volume of distribution at steady state in rat at 1 mg/kg, iv administered as 5 mins infusion. The format is ADME, organism-based. The settings on record: in vivo, read-out: Vdss.
Data set [6] can be described thus: Fraction unbound in rat plasma at 10 uM after 4 hrs by equilibrium dialysis method. The format is ADME, cell-free.
Data set [7] is described as follows: Half life in rat at 1 mg/kg, iv administered as 5 mins infusion. Type of data set: ADME, organism-based. The settings on record: in vivo.
Data set [8] is described as follows: Oral bioavailability in rat at 10 mg/kg. Type of data set: ADME, organism-based. To be noted: in vivo.
Data set [9] in a line: Metabolic stability in rat liver microsomes assessed as compound remaining at 3 uM after 10 mins by LC-MS/MS analysis. Type of data set: ADME, microsome. To be noted: read-out: Stability. For orientation: Liver microsomes are a subcellular fraction often used to study metabolism.
A short description of data set [10]: Cmax in rat at 10 mg/kg, po. Also on record: dose 10 mg/kg, route oral. The settings on record: in vivo. Type of data set: ADME, organism-based.
A short description of data set [11]: Half life in mouse at 1 mg/kg, iv administered as 5 mins infusion. The format is ADME, organism-based. To be noted: in vivo.
Data set [12] is described as follows: Metabolic stability in monkey liver microsomes assessed as compound remaining at 3 uM after 10 mins by LC-MS/MS analysis. The settings on record: rhesus monkey, read-out: Stability. The format is ADME, Macaca mulatta, microsome.
Data set [13] is described as follows: Volume of distribution at steady state in mouse at 1 mg/kg, iv administered as 5 mins infusion. The format is ADME, organism-based. The settings on record: in vivo, read-out: Vdss.
Data set [14] can be described thus: AUC in cynomolgus monkey at 5 mg/kg, po. Type of data set: ADME, organism-based, Macaca fascicularis. To be noted: in vivo.
A short description of data set [15]: AUC in mouse at 1 mg/kg, iv administered as 5 mins infusion. The format is ADME, organism-based. The settings on record: in vivo.

One may read the pEC50 as the EC50 on a negative log10 scale, so that one unit is a factor of ten. Usually half-life stands for how long it takes for the measured level to halve. What is called Cmax is the peak of the concentration-time curve. The fraction unbound is free concentration divided by total concentration. One may read the bioavailability as dose-corrected exposure relative to a reference, in per cent. Usually AUC stands for concentration integrated over time.

pEC50: −log10 of the molar value.

T1 sequence (Q05941 whole entry, the tested form may be a part): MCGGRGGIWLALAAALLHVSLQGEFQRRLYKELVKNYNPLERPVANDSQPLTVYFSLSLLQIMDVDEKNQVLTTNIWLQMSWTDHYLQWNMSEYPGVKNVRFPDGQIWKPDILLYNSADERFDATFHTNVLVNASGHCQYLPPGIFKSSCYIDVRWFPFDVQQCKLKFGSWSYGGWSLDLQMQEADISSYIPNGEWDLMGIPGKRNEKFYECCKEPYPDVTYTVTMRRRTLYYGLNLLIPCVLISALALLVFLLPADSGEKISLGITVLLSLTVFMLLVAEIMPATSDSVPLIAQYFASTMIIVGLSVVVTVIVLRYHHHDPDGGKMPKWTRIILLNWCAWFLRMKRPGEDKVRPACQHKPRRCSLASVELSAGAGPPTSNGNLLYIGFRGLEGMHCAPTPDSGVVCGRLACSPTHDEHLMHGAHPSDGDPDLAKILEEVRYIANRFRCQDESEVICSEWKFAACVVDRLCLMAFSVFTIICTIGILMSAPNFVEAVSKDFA

For the molecule `c1cn(-c2cc(NC3=NC[C@@]4(CN5CCC4CC5)O3)ncn2)cn1`, the values for the pEC50 in [1] and in data set [4] were 7.00 and 7.64, respectively. Besides, the half-life is 5.5 h in data set [2], 0.7 h in data set [7] and 1.1 h in data set [11]. The Cmax is 550 nM in data set [3] and 1600 nM in data set [10]. Further, the Vd turned out to be 2.9 L/kg in data set [5] and 7 L/kg in data set [13]. The fraction unbound at 4 h, 10 µM in data set [6] is 0.87. Further, in [8], the bioavailability is 97%. Besides, the figures for the remaining at 10 min, 3 µM in data set [9] and in data set [12] were 95% and 100%, respectively. For the same molecule, the AUC in [14] worked out at 11 µM·h. This molecule also came in with an AUC at 5 min in data set [15] of 0.53 µM·h.

The values are drawn from ChEMBL document CHEMBL4002647, “BMS-933043, a Selective α7 nAChR Partial Agonist for the Treatment of Cognitive Deficits Associated with Schizophrenia” (ACS Med Chem Lett, 2017).
